Structures are written as SMILES.

The target of this assay is T1, Androgen Receptor (AR) (Homo sapiens, UniProt P10275, T878A).
T1 construct: cell based immuno-fluorescence assay using the LNCaP prostate epithelial cell line; endogenous in cells; host or cells: LNCaP clone FGC (ATCC CRL-1740)
T1 sequence (P10275 1-920 T878A): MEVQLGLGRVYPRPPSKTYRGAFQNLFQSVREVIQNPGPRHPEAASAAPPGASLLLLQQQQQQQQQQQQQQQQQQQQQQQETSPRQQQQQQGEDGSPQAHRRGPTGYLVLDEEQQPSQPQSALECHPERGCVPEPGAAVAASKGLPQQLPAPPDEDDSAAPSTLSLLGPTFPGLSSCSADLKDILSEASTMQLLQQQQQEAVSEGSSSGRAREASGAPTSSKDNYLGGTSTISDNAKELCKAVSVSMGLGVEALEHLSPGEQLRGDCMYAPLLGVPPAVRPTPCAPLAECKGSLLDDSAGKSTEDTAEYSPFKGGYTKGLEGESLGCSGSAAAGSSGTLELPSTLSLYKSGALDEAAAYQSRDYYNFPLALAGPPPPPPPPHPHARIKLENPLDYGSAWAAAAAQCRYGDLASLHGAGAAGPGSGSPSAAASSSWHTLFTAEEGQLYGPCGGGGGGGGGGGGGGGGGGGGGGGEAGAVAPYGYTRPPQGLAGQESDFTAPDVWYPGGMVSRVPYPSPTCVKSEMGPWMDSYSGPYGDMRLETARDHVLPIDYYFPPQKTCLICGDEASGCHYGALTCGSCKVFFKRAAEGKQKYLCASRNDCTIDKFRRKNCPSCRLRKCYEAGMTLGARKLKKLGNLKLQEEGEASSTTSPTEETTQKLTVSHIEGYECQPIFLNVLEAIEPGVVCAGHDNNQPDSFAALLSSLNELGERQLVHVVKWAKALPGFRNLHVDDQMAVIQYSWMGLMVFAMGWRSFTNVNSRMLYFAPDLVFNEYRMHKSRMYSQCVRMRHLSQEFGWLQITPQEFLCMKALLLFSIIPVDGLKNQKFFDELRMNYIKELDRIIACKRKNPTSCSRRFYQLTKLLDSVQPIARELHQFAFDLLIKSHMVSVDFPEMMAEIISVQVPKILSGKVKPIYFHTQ
Nature of the assay: LNCaP Androgen Receptor Down-regulation Cell Assay (immunofluorescence end point). In kind it is cell-based. As to conditions: LNCaP prostate carcinoma cells, compound incubation 20-22 hours, 50% reduction of the AR signal; read-out: Androgen Receptor Down-regulation Assay (a) IC50/μM. Summed up:
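AR loss reported as IC50 from curve fits of fluorescence dose-response data, with AR immunostained and read by laser-scanning cytometry. Compound exposure was 20-22 h at 37° C in LNCaP cells grown in 5% charcoal-stripped FBS and plated overnight beforehand.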
For the molecule `Fc1ccc(CN[C@H]2[C@@H]3CN(c4ccc5nnc(C(F)(F)F)n5n4)C[C@@H]32)cc1` [Example 554, (1α,5α,6α) N-(4-fluorobenzyl)-3-[3-(trifluoromethyl)[1,2,4]triazolo[4,3-b]pyridazin-6-yl]-3-azabicyclo[3.1.0]hexan-6-amine], the DC50 was found to be 4.9 µM. For `FC(F)(F)c1nnc2ccc(N3C[C@@H]4[C@H](C3)[C@H]4NCc3cccc(Cl)c3)nn12` [Example 555], the DC50 is 1.4 µM. Next, `Fc1cccc(CN[C@H]2[C@@H]3CN(c4ccc5nnc(C(F)(F)F)n5n4)C[C@@H]32)c1` [Example 556]: 4.4 µM. Next, `FC(F)(F)c1nnc2ccc(N3CCC(COc4ncccn4)CC3)nn12` [Example 558]: 2.6 µM. In the case of `FC(F)(F)c1nnc2ccc(N3CCC(COc4cccnc4)CC3)nn12` [Example 560] it was 8.8 µM.

For `FC(F)(F)c1nnc2ccc(N3CCC(COc4ccncc4)CC3)nn12` [Example 561], the DC50 worked out at 2.9 µM. For `FC(F)(F)c1nnc2ccc(N3CCC(COc4cccc(Cl)n4)CC3)nn12` [Example 562, 6-[4-[[(6-chloropyridin-2-yl)oxy]methyl]piperidin-1-yl]-3-(trifluoromethyl)[1,2,4]triazolo[4,3-b]pyridazine], the DC50 stood at 2 µM. As to `C[C@@H]1CN(c2ccc3nnc(C(F)(F)F)n3n2)CCN1Cc1cccnc1` [Example 564, 6-[(3R)-3-methyl-4-(pyridin-3-ylmethyl)piperazin-1-yl]-3-(trifluoromethyl)[1,2,4]triazolo[4,3-b]pyridazine], the DC50 was found to be 6.7 µM. Consider `C[C@@H]1CN(c2ccc3nnc(C(F)(F)F)n3n2)CCN1Cc1ccc(C#N)cc1` [Example 565], for which the DC50 came to 3.5 µM. Turning to `C[C@@H]1CN(c2ccc3nnc(C(F)(F)F)n3n2)CCN1Cc1cc(F)cc(F)c1` [Example 567], the DC50 is greater than 16 µM.

`C[C@@H]1CN(c2ccc3nnc(C(F)(F)F)n3n2)CCN1Cc1ccc(F)cc1` [Example 568]: the DC50 was found to be 3.3 µM.

`C[C@@H]1CN(c2ccc3nnc(C(F)(F)F)n3n2)CCN1Cc1ccc(F)c(C#N)c1` [Example 569]: the DC50 worked out at 2.7 µM. In the case of `C[C@H]1CN(c2ccc3nnc(C(F)(F)F)n3n2)CCN1Cc1cccnc1` [Example 570, 6-[(3S)-3-methyl-4-(pyridin-3-ylmethyl)piperazin-1-yl]-3-(trifluoromethyl)[1,2,4]triazolo[4,3-b]pyridazine] it was 4.5 µM; in that of `C[C@H]1CN(c2ccc3nnc(C(F)(F)F)n3n2)CCN1Cc1ccc(C#N)cc1` [Example 571], 0.96 µM. Turning to `C[C@H]1CN(c2ccc3nnc(C(F)(F)F)n3n2)CCN1Cc1ccc(F)c(F)c1` [Example 572], the DC50 amounted to 3.4 µM. In the case of `C[C@H]1CN(c2ccc3nnc(C(F)(F)F)n3n2)CCN1Cc1ccc(F)c(C#N)c1` [Example 575], the DC50 is 2.5 µM. As to `FC(F)(F)c1nnc2ccc(N3CC[C@@H](Oc4cccnc4)C3)nn12` [Example 576, 6-[(3R)-3-(pyridin-3-yloxy)pyrrolidin-1-yl]-3-(trifluoromethyl)[1,2,4]triazolo[4,3-b]pyridazine], the DC50 was determined as 5 µM. Take `FC(F)(F)c1nnc2ccc(N3CC[C@@H](Oc4ccncc4)C3)nn12` [Example 577, 6-[(3R)-3-(pyridin-4-yloxy)pyrrolidin-1-yl]-3-(trifluoromethyl)[1,2,4]triazolo[4,3-b]pyridazine]: the DC50 came to 5 µM. Regarding `FC(F)(F)c1nnc2ccc(N3CC[C@@H](Oc4ccccn4)C3)nn12` [Example 578, 6-[(3R)-3-(pyridin-2-yloxy)pyrrolidin-1-yl]-3-(trifluoromethyl)[1,2,4]triazolo[4,3-b]pyridazine], the DC50 came out at 2.5 µM.

`FC(F)(F)c1ccc(O[C@@H]2CCN(c3ccc4nnc(C(F)(F)F)n4n3)C2)cc1` [Example 579]: the DC50 came to 4.1 µM. Next, `N#Cc1ccc(O[C@@H]2CCN(c3ccc4nnc(C(F)(F)F)n4n3)C2)cc1` [Example 580]: 2 µM; `Fc1ccc(O[C@@H]2CCN(c3ccc4nnc(C(F)(F)F)n4n3)C2)cc1` [Example 581]: 3.3 µM; `COc1ccc(O[C@@H]2CCN(c3ccc4nnc(C(F)(F)F)n4n3)C2)cc1` [Example 582]: 2.4 µM.

For the molecule `FC(F)(F)c1cccc(O[C@@H]2CCN(c3ccc4nnc(C(F)(F)F)n4n3)C2)c1` [Example 583], the DC50 came out at 4.1 µM.

On to `N#Cc1cccc(O[C@@H]2CCN(c3ccc4nnc(C(F)(F)F)n4n3)C2)c1` [Example 584], for which the DC50 was 2.8 µM.

Turning to `Fc1cccc(O[C@@H]2CCN(c3ccc4nnc(C(F)(F)F)n4n3)C2)c1` [Example 585], the DC50 is 1.5 µM. In the case of `COc1cccc(O[C@@H]2CCN(c3ccc4nnc(C(F)(F)F)n4n3)C2)c1` [Example 586] it was 2.1 µM.

As to `FC(F)(F)c1nnc2ccc(N3CC[C@H](Oc4cccnc4)C3)nn12` [Example 587, 6-[(3S)-3-(pyridin-3-yloxy)pyrrolidin-1-yl]-3-(trifluoromethyl)[1,2,4]triazolo[4,3-b]pyridazine], the DC50 is greater than 17 µM. Turning to `FC(F)(F)c1nnc2ccc(N3CC[C@H](Oc4ccncc4)C3)nn12` [Example 588, 6-[(3S)-3-(pyridin-4-yloxy)pyrrolidin-1-yl]-3-(trifluoromethyl)[1,2,4]triazolo[4,3-b]pyridazine], the DC50 was found to be 5.3 µM. For the molecule `FC(F)(F)c1nnc2ccc(N3CC[C@H](Oc4ccccn4)C3)nn12` [Example 589, 6-[(3S)-3-(pyridin-2-yloxy)pyrrolidin-1-yl]-3-(trifluoromethyl)[1,2,4]triazolo[4,3-b]pyridazine], the DC50 was 4.8 µM. Take `N#Cc1ccc(O[C@H]2CCN(c3ccc4nnc(C(F)(F)F)n4n3)C2)cc1` [Example 591]: the DC50 was found to be 20 µM.

As for `FC(F)(F)c1ccc(O[C@H]2CCN(c3ccc4nnc(C(F)(F)F)n4n3)C2)cc1` [Example 592], the DC50 worked out at 9.6 µM.

For the molecule `C[C@H]1CN(Cc2cccnc2)CCN1c1ccc2nnc(C(F)(F)F)n2n1` [Example 593, 6-[(2S)-2-methyl-4-(pyridin-3-ylmethyl)piperazin-1-yl]-3-(trifluoromethyl)[1,2,4]triazolo[4,3-b]pyridazine], the DC50 worked out at 7.2 µM. As for `C[C@H]1CN(Cc2ccc(F)c(F)c2)CCN1c1ccc2nnc(C(F)(F)F)n2n1` [Example 595], the DC50 is 6.8 µM. In the case of `C[C@H]1CN(Cc2cc(F)cc(F)c2)CCN1c1ccc2nnc(C(F)(F)F)n2n1` [Example 596], the DC50 was determined as 4.2 µM. Turning to `C[C@H]1CN(Cc2ccc(F)cc2)CCN1c1ccc2nnc(C(F)(F)F)n2n1` [Example 597], the DC50 was found to be 2.9 µM. Take `C[C@H]1CN(Cc2ccc(F)c(C#N)c2)CCN1c1ccc2nnc(C(F)(F)F)n2n1` [Example 598]: the DC50 is 4.2 µM. Consider `C[C@@H]1CN(Cc2cccnc2)CCN1c1ccc2nnc(C(F)(F)F)n2n1` [Example 599, 6-[(2R)-2-methyl-4-(pyridin-3-ylmethyl)piperazin-1-yl]-3-(trifluoromethyl)[1,2,4]triazolo[4,3-b]pyridazine], for which the DC50 worked out at 5.8 µM.

Consider `C[C@@H]1CN(Cc2ccc(C#N)cc2)CCN1c1ccc2nnc(C(F)(F)F)n2n1` [Example 600], for which the DC50 is 0.85 µM. On to `C[C@@H]1CN(Cc2ccc(F)c(F)c2)CCN1c1ccc2nnc(C(F)(F)F)n2n1` [Example 601], for which the DC50 was determined as 2.2 µM.

The values above are taken from patent US8003649B2 (AstraZeneca AB, priority 2007, dated 2011).
